What was measured:
RA patients [1] = experiment: Plasma ApoC-III concentration (ELISA), Study 4; format: in vivo, human; settings: for ApoC-III level, 4 weeks CFB: 4 weeks change from baseline
Description: Randomized double-blind, placebo-controlled add on study in subjects with active RA who have an inadequate response to MTX monotherapy, in combination with methotrexate, administered for 4 weeks in the treatment of subjects with active rheumatoid arthritis who have an inadequate response to methotrexate alone.
Compound 1 (dosed as a [Compound 1:HCl:3H2O]) capsules administered orally in 30 mg, 75 mg, 150 mg, or 300 mg doses per day for 4 weeks.
Plasma ApoC-II and ApoC-III concentrations are determined using commercial available ELISA kits from Abnova (9th Floor, No. 108, Jhouzih St., Neihu District. Taipei City, 114, Taiwan) according to manufacturer's instruction. apoC2: catalogue number KA0464, lot number used: 08871403. apoC3: catalogue number KA0465, lot number used: 02961525.

RA patients [2] = experiment: Disease Activity Score 28 (DAS28(CRP)), Study 2; format: in vivo, human
Description: As used herein, the term ‘DAS28(CRP)’ refers to a clinical scoring ranging from 2.0 to 10.0 to measure the disease status at a given point in time, and thereby follow the progress and improvement of rheumatoid arthritis in a patient, and includes a 28 tender and swollen joint count, CRP measurement from blood analysis, and a general health assessment on a visual analog scale. A DAS28(CRP) value below 2.6 is indicative of remission, A DAS28(CRP) between 2.6 and 3.2 is indicative of low disease activity, between 3.2 and 5.1 is indicative of moderate disease activity, whereas a DAS28(CRP) above 5.1 is linked to high disease activity. (Wells et al., 2008)
Double-blind, placebo-controlled, monotherapy study in subjects with moderately to severely active RA who have an inadequate response to methotrexate (MTX) (oral or parenteral).
Twelve weeks of treatment with Compound 1 (dosed as a [Compound 1:HCl:3H2O]) at 50 mg, 100 mg, or 200 mg q.d.; or placebo. At Week 12, all subjects on placebo and the subjects on the 50 mg dose who have not achieved 20% improvement in swollen joint count (SJC66) and tender joint count (TJC68) will be assigned to 100 mg q.d. in a blinded fashion and will continue treatment until Week 24. Subjects in the other groups will maintain their randomized treatment until Week 24.
The (DAS28(CRP)) is a system developed and validated by the European League Against Rheumatism (EULAR) to measure the progress and improvement of rheumatoid arthritis and has been extensively validated (Wells et al., 2008). The DAS28(CRP) scoring includes a 28 tender and swollen joint count, CRP measurement from blood analysis, and a general health assessment on a visual analog scale (Fransen et al., 2003).
DAS28(CRP) values range from 2.0 to 10.0, and more particularly reflect the following status: • Remission: DAS28(CRP)≤2.6 • Low Disease activity: 2.6<DAS28(CRP)≤3.2 • Moderate Disease Activity: 3.2<DAS28(CRP)≤5.1 • High Disease Activity: DAS28(CRP)>5.1
In practice, the DAS28(CRP) measurement involves the evaluation 28 different joints including in the measurement (proximal interphalangeal joints (10 joints), metacarpophalangeal joints (10), wrists (2), elbows (2), shoulders (2), and knees (2)). When looking at these joints, both the number of joints with tenderness upon touching and swelling are counted.
Firstly, the patient is asked to make a vertical mark on a 100 mm Visual Analog Scale (VAS) corresponding to their general health or global disease activity. Using an electronic touchscreen, the mark is measured from the left-hand side in mm to obtain the VAS value, which is used in the formula below.
Secondly, a swollen and tender joint examination is then performed on the patient. The swollen and tender joints are recorded. From this examination are obtained the total amount of swollen joints (SJC) and the total amount of tender joints (TJC), which are used in the formula below.
Thirdly, C-reactive protein (CRP) levels (in mg/dL) are measured.
Finally, the values obtained above (VAS, JTC28, SJC28, and CRP) are computed into the following Formula to obtain the DAS28(CRP) score.
The number of subjects (N) provided in each groups corresponds to the number of patients starting the study in each group, and the DAS28 (CRP) data reported below corresponds to the responding patients continuing for the entire 24 weeks on their initial treatment course.

With O=C(Nc1nc2cccc(-c3ccc(CN4CCS(=O)(=O)CC4)cc3)n2n1)C1CC1 [Compound 1, cyclopropanecarboxylic acid {5-[4-(1,1-dioxo-thiomorpholin-4-ylmethyl)-phenyl]-[1,2,4]triazolo[1,5-a]pyridin-2yl}-amide] the “ApoC-III level, 4 weeks CFB” value (RA patients [1]; 30 mg q.d.) was 4.6%, the “ApoC-III level, week 4” value (RA patients [1]; 30 mg q.d.) was 78.6 ng/mL and the “ApoC-III level, 4 weeks CFB” value (RA patients [1]; 75 mg q.d.) was 17.6%. The “ApoC-III level, week 4” value (RA patients [1]; 75 mg q.d.) was 79.6 ng/mL, the “ApoC-III level, 4 weeks CFB” value (RA patients [1]; 150 mg q.d.) was 9.6% and the “ApoC-III level, week 4” value (RA patients [1]; 150 mg q.d.) was 82.7 ng/mL. The “ApoC-III level, 4 weeks CFB” value (RA patients [1]; 300 mg q.d.) was 27.9%, the “ApoC-III level, week 4” value (RA patients [1]; 300 mg q.d.) was 88.2 ng/mL and the “DAS28(CRP) mean CFB (LOCF) - over 24 weeks” value (RA patients [2]; 50 mg q.d., Week 16) was −1.88. The “DAS28(CRP) mean CFB (LOCF) - over 12 weeks” value (RA patients [2]; 50 mg q.d., week 1) was −0.70, the “DAS28(CRP) mean CFB (LOCF) - over 24 weeks” value (RA patients [2]; 50 mg q.d., week 1) was −0.75 and the “DAS28(CRP) mean CFB (LOCF) - over 12 weeks” value (RA patients [2]; 50 mg q.d., week 2) was −0.97. For the same molecule, the “DAS28(CRP) mean CFB (LOCF) - over 12 weeks” value (RA patients [2]; 50 mg q.d., week 4) was −1.37, the “DAS28(CRP) mean CFB (LOCF) - over 24 weeks” value (RA patients [2]; 50 mg q.d., week 12) was −1.75 and the “% patients reaching low disease activity and/or remission at week 24 (LOCF)” value (RA patients [2]; 100 mg q.d.) was 50%. For the same molecule, the “DAS28(CRP) mean CFB (LOCF) - over 12 weeks” value (RA patients [2]; 100 mg q.d., week 1) was −0.88, the “DAS28(CRP) mean CFB (LOCF) - over 24 weeks” value (RA patients [2]; 100 mg q.d., week 1) was −0.87 and the “DAS28(CRP) mean CFB (LOCF) - over 12 weeks” value (RA patients [2]; 100 mg q.d., week 4) was −1.50. For the same molecule, the “DAS28(CRP) mean CFB (LOCF) - over 24 weeks” value (RA patients [2]; 100 mg q.d., week 12) was −2.04, the “DAS28(CRP) mean CFB (LOCF) - over 24 weeks” value (RA patients [2]; 100 mg q.d., week 16) was −2.39 and the “DAS28(CRP) mean CFB (LOCF) - over 24 weeks” value (RA patients [2]; 200 mg q.d., week 8) was −2.23. The “DAS28(CRP) mean CFB (LOCF) - over 24 weeks” value (RA patients [2]; 200 mg q.d., week 20) was −2.55.
